Tests used:
bedstraw = test: Test B pre/postemergence bedstraw; format: in vivo, Galium aparine
Summary of the method: (§1)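 Response is a visual 0-to-10 score relative to untreated plants, where 0 means no effect and 10 means complete control, taken twelve to sixteen days after application. Treatments went onto soil at planting and onto foliage of 1- to 4-leaf plants, using a surfactant-containing non-phytotoxic solvent.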

blackgrass = test: Test B pre/postemergence blackgrass; format: in vivo, Alopecurus myosuroides
Summary of the method: as §1

surinam grass = test: Test B pre/postemergence surinam grass; format: in vivo, Brachiaria decumbens
Summary of the method: as §1

cocklebur = test: Test B pre/postemergence cocklebur; format: in vivo, Xanthium strumarium
Summary of the method: as §1

corn = test: Test B pre/postemergence corn; format: in vivo, Zea mays
Summary of the method: as §1

crabgrass = test: Test B pre/postemergence crabgrass; format: in vivo, Digitaria sanguinalis
Summary of the method: as §1

giant foxtail = test: Test B pre/postemergence giant foxtail; format: in vivo, Setaria faberii
Summary of the method: as §1

morningglory = test: Test B pre/postemergence morningglory; format: in vivo, Ipomoea hederacea
Summary of the method: as §1

pigweed = test: Test B pre/postemergence pigweed; format: in vivo, Amaranthus retroflexus; conditions: for Plant response rating, Redroot pigweed: Postemergence
Summary of the method: as §1

rape = test: Test B pre/postemergence rape; format: in vivo, Brassica napus
Summary of the method: as §1

soybean = test: Test B pre/postemergence soybean; format: in vivo, Glycine max; conditions: for Plant response rating, Soybean: Postemergence
Summary of the method: as §1

sugar beet = test: Test B pre/postemergence sugar beet; format: in vivo, Beta vulgaris; conditions: for Plant response rating, Sugarbeets: Postemergence
Summary of the method: as §1

velvetleaf = test: Test B pre/postemergence velvetleaf; format: in vivo, Abutilon theophrasti; conditions: for Plant response rating, Velvetleaf: Postemergence
Summary of the method: as §1

wheat = test: Test B pre/postemergence wheat; format: in vivo, Triticum aestivum; conditions: for Plant response rating, Wheat: Postemergence
Summary of the method: as §1

wild oat = test: Test B pre/postemergence wild oat; format: in vivo, Avena fatua; conditions: for Plant response rating, Wild oats: Postemergence
Summary of the method: as §1

purple nutsedge = test: Test B pre/postemergence purple nutsedge; format: in vivo, Cyperus rotundus
Summary of the method: as §1

[1] = Postemergence, Rate 62 g/ha, scale of 0 to 10, 0 is no effect, 10 is complete control
[2] = Preemergence, Rate 62 g/ha, scale 0 to 10 (0 no effect, 10 complete control)
[3] = Preemergence, Rate 125 g/ha, scale 0 to 10, 0 is no effect, 10 is complete control
[4] = Preemergence, Rate 500 g/ha, scale of 0 to 10 where 0 is no effect and 10 is complete control
[5] = Rate 250 g/ha, Postemergence, scale of 0 to 10 where 0 is no effect and 10 is complete control
[6] = Postemergence, Rate 125 g/ha, scale 0 to 10, 0 is no effect, 10 is complete control
[7] = Postemergence, Rate 500 g/ha, scale of 0 to 10 where 0 is no effect and 10 is complete control
[8] = Rate 500 g/ha, scale of 0 to 10 where 0 is no effect and 10 is complete control
[9] = Rate 250 g/ha, scale of 0 to 10 where 0 is no effect and 10 is complete control

Compound: COC(=O)CCCn1c(=O)on(C(=O)N(c2ccccc2)C(C)C)c1=O [Compound 572]
- Bedstraw plant response rating (bedstraw; [1]): 0
- Bedstraw plant response rating (bedstraw; [2]): 0
- Bedstraw plant response rating (bedstraw; [3]): 0
- Bedstraw plant response rating (0 to 10 scale) (bedstraw; Preemergence, Rate 250 g/ha): 0
- Bedstraw plant response rating (bedstraw; [4]): 0
- Plant response rating, Bedstraw (bedstraw; [5]): 0
- Blackgrass plant response rating (blackgrass; [1]): 0
- Blackgrass plant response rating (blackgrass; [6]): 0
- Plant response rating, Blackgrass (blackgrass; [7]): 0
- Blackgrass plant response rating (blackgrass; [2]): 0
- Blackgrass plant response rating (blackgrass; [3]): 0
- Blackgrass plant response rating (0 to 10 scale) (blackgrass; Preemergence, Rate 250 g/ha): 0
- Blackgrass plant response rating (blackgrass; [4]): 0
- Plant response rating, Blackgrass (blackgrass; [5]): 0
- B. signalgrass plant response rating (surinam grass; [1]): 0
- B. signalgrass plant response rating (surinam grass; [6]): 0
- Plant response rating, B. signalgrass (surinam grass; [7]): 0
- B. signalgrass plant response rating (surinam grass; [2]): 0
- B. signalgrass plant response rating (surinam grass; [3]): 0
- B. signalgrass plant response rating (0 to 10 scale, 0 is no effect, 10 is complete control) (surinam grass; Preemergence, Rate 250 g/ha): 0
- B. signalgrass plant response rating (surinam grass; [4]): 0
- Plant response rating, B. signalgrass (surinam grass; [5]): 0
- Cocklebur plant response rating (cocklebur; [1]): 0
- Cocklebur plant response rating (cocklebur; [6]): 0
- Plant response rating, Cocklebur (cocklebur; [7]): 0
- Cocklebur plant response rating (cocklebur; [2]): 0
- Cocklebur plant response rating (cocklebur; [3]): 0
- Cocklebur plant response rating (0 to 10 scale) (cocklebur; Preemergence, Rate 250 g/ha): 0
- Cocklebur plant response rating (cocklebur; [4]): 0
- Plant response rating, Cocklebur (cocklebur; [5]): 0
- Corn plant response rating (corn; [1]): 0
- Corn plant response rating (corn; [6]): 0
- Plant response rating, Corn (corn; [7]): 0
- Corn plant response rating (corn; [2]): 0
- Corn plant response rating (corn; [3]): 0
- Corn plant response rating (0 to 10 scale) (corn; Preemergence, Rate 250 g/ha): 0
- Corn plant response rating (corn; [4]): 0
- Plant response rating, Corn (corn; [5]): 0
- Crabgrass plant response rating (crabgrass; [1]): 0
- Crabgrass plant response rating (crabgrass; [6]): 0
- Plant response rating, Crabgrass (crabgrass; [7]): 8
- Crabgrass plant response rating (crabgrass; [2]): 0
- Crabgrass plant response rating (crabgrass; [3]): 0
- Crabgrass plant response rating (0 to 10 scale) (crabgrass; Preemergence, Rate 250 g/ha): 0
- Crabgrass plant response rating (crabgrass; [4]): 0
- Plant response rating, Crabgrass (crabgrass; [5]): 6
- Giant foxtail plant response rating (giant foxtail; [1]): 0
- Giant foxtail plant response rating (giant foxtail; [6]): 0
- Plant response rating, Giant foxtail (giant foxtail; [7]): 0
- Giant foxtail plant response rating (giant foxtail; [2]): 0
- Giant foxtail plant response rating (giant foxtail; [3]): 0
- Giant foxtail plant response rating (0 to 10 scale) (giant foxtail; Preemergence, Rate 250 g/ha): 4
- Giant foxtail plant response rating (giant foxtail; [4]): 7
- Plant response rating, Giant foxtail (giant foxtail; [5]): 0
- Morningglory plant response rating (morningglory; [1]): 3
- Morningglory plant response rating (morningglory; [6]): 3
- Plant response rating, Morningglory (morningglory; [7]): 10
- Morningglory plant response rating (morningglory; [2]): 0
- Morningglory plant response rating (morningglory; [3]): 0
- Morningglory plant response rating (0 to 10 scale) (morningglory; Preemergence, Rate 250 g/ha): 0
- Morningglory plant response rating (morningglory; [4]): 0
- Plant response rating, Morningglory (morningglory; [5]): 5
- Plant response rating, Redroot pigweed (pigweed; [8]): 0
- Redroot pigweed plant response rating (pigweed; [2]): 0
- Redroot pigweed plant response rating (pigweed; [3]): 0
- Redroot pigweed plant response rating (0 to 10 scale) (pigweed; Preemergence, Rate 250 g/ha): 0
- Redroot pigweed plant response rating (pigweed; [4]): 5
- Plant response rating, Redroot pigweed (pigweed; [9]): 0
- Rape plant response rating (rape; [1]): 2
- Rape plant response rating (rape; [6]): 3
- Plant response rating, Rape (rape; [7]): 4
- Rape plant response rating (rape; [2]): 0
- Rape plant response rating (rape; [3]): 0
- Rape plant response rating (0 to 10 scale) (rape; Preemergence, Rate 250 g/ha): 0
- Rape plant response rating (rape; [4]): 0
- Plant response rating, Rape (rape; [5]): 3
- Plant response rating, Soybean (soybean; [8]): 7
- Soybean plant response rating (soybean; [2]): 0
- Soybean plant response rating (soybean; [3]): 0
- Soybean plant response rating (0 to 10 scale) (soybean; Preemergence, Rate 250 g/ha): 0
- Soybean plant response rating (soybean; [4]): 0
- Plant response rating, Soybean (soybean; [9]): 5
- Plant response rating, Sugarbeets (sugar beet; [8]): 0
- Sugarbeets plant response rating (sugar beet; [2]): 0
- Sugarbeets plant response rating (sugar beet; [3]): 0
- Sugarbeets plant response rating (0 to 10 scale) (sugar beet; Preemergence, Rate 250 g/ha): 0
- Sugarbeets plant response rating (sugar beet; [4]): 0
- Plant response rating, Sugarbeets (sugar beet; [9]): 0
- Plant response rating, Velvetleaf (velvetleaf; [8]): 7
- Velvetleaf plant response rating (velvetleaf; [2]): 0
- Velvetleaf plant response rating (velvetleaf; [3]): 0
- Velvetleaf plant response rating (0 to 10 scale) (velvetleaf; Preemergence, Rate 250 g/ha): 0
- Velvetleaf plant response rating (velvetleaf; [4]): 2
- Plant response rating, Velvetleaf (velvetleaf; [9]): 0
- Plant response rating, Wheat (wheat; [8]): 0
- Wheat plant response rating (wheat; [2]): 0
- Wheat plant response rating (wheat; [3]): 0
- Wheat plant response rating (0 to 10 scale) (wheat; Preemergence, Rate 250 g/ha): 0
- Wheat plant response rating (wheat; [4]): 0
- Plant response rating, Wheat (wheat; [9]): 0
- Plant response rating, Wild oats (wild oat; [8]): 0
- Wild oats plant response rating (wild oat; [2]): 0
- Wild oats plant response rating (wild oat; [3]): 0
- Wild oats plant response rating (0 to 10 scale) (wild oat; Preemergence, Rate 250 g/ha): 0
- Wild oats plant response rating (wild oat; [4]): 0
- Plant response rating, Wild oats (wild oat; [9]): 0
- Nutsedge plant response rating (purple nutsedge; [1]): 0
- Nutsedge plant response rating (purple nutsedge; [6]): 0
- Nutsedge plant response rating (purple nutsedge; [2]): 0
- Nutsedge plant response rating (purple nutsedge; [3]): 0
- Nutsedge plant response rating (0 to 10 scale) (purple nutsedge; Preemergence, Rate 250 g/ha): 0
- Nutsedge plant response rating (purple nutsedge; [4]): 0
- Plant response rating, Nutsedge (purple nutsedge; [5]): 0
